Experimental data as given in patent publication US10322995B2, “Substituted cyano cycloalkyl penta-2,4-dienes, cyano cycloalkyl pent-2-en-4-ynes, cyano heterocyclyl penta-2,4-dienes and cyano heterocyclyl pent-2-en-4-ynes as active substances against abiotic plant stress” (BAYER CROPSCIENCE AKTIENGESELLSCHAFT, priority 2014, dated 2019).

Key:
[1] = target: T1, phosphatase ABI1 via the co-regulator RCAR11/PYR1 (Arabidopsis thaliana, UniProt O49686+P49597); experiment: In vitro assay: inhibition of the phosphatase ABI1 via the co-regulator RCAR11/PYR1, MUP dephosphorylation, fluorescence; type: biochemical; set-up: inhibition: dose or concentration left out as unconfirmed; details: MUP dephosphorylation, fluorescence 460 nm; for ABI1 inhibition: concentration of 5 mM of the substance in a solution of DMSO and water; for inhibition: read-out: ABI1 inhibition
T1 sequence (O49686 1-191): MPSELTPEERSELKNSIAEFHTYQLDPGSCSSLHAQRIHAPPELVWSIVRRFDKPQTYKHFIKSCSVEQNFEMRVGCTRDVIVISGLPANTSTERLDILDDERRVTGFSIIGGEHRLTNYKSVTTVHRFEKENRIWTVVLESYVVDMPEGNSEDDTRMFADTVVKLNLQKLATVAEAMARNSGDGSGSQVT
T1 sequence (P49597 1-434): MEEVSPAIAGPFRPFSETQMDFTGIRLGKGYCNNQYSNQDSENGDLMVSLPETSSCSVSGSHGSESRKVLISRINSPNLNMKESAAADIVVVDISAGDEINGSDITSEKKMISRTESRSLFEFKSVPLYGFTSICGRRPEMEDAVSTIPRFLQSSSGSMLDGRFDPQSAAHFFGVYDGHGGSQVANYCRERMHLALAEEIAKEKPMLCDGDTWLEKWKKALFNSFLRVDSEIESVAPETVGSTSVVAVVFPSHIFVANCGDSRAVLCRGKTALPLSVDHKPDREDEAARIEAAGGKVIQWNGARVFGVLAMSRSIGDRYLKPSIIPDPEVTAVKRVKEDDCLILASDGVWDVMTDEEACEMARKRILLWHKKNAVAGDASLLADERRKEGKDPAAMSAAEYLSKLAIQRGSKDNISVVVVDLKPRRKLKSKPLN
Text: Effects of the phytohormone abscisic acid (ABA) on the behaviour of plants under abiotic stress and the mechanism of action of ABA are described in the literature (cf. Abrams et al, WO97/23441, Cutler, Park et al. Science, 2009, 324, 1068; Grill et al. Science, 2009, 324, 1064; Tanokura et al. Biophysics, 2011, 7, 123; Schroeder et al. Plant J. 2010, 61, 290). Therefore, it is possible with the aid of a suitable in vitro test system to derive a correlation between the action of ABA and the stress response of a plant under abiotic stress. Under drought stress, plants form the phytohormone abscisic acid (ABA). This binds, along with a co-regulator (Regulatory Component of ABA-Receptor=RCAR according to Grill et al. Science, 2009, 324, 1064 or PYR/PYL according to Cutler et al. Science, 2009, 324, 1068), to a phosphatase (e.g. ABI1, a type 2C protein phosphatase, also abbreviated to PP2C) and inhibits its activity. As a result, a “downstream” kinase (e.g. SnRK2) is no longer dephosphorylated. This kinase, which is thus active, via phosphorylation of transcription factors (e.g. AREB/ABF, vgl. Yoshida et al., Plant J. 2010, 61, 672), switches on a genetic protection programme to increase drought stress tolerance.
The assay described hereinafter utilizes the inhibition of the phosphatase ABI1 via the co-regulator RCAR11/PYR1 aus Arabidopsis thaliana.
For the determination of activity, the dephosphorylation of 4-methylumbelliferyl phosphate (MUP) was measured at 460 nm. The in vitro assay was conducted in Greiner 384-well PS microplates F-well, using two controls: a) dimethyl sulphoxide (DMSO) 0.5% (f.c.) and b) 5 μM (f.c.) abscisic acid (ABA). […] The substance solution thus obtained, if necessary, was stirred with esterase from porcine liver (EC 3.1.1.1) at room temperature for 3 h and centrifuged at 4000 rpm for 30 min. A total volume of 45 μl was introduced into each cavity of the microplate, having the following composition: • 1) 5 μl of substance solution, i.e. a) DMSO 5% or b) abscisic acid solution or c) the corresponding example compound of the general formula (I) dissolved in 5% DMSO. • 2) 20 μl of enzyme buffer mix, composed of a) 40% by vol. of enzyme buffer (10 ml contain equal proportions by volume of 500 mM Tris-HCl pH8, 500 mM NaCl, 3.33 mM MnCl2, 40 mM dithiothreitol (DTT)), b) 4% by vol. of ABI1 dilution (protein stock solution was diluted so as to give, after addition, a final concentration in the assay of 0.15 μg ABI1/well), c) 4% by vol. of RCAR11 dilution (enzyme stock was diluted so as to give, on addition of the dilution to the enzyme buffer mix, a final concentration in the assay of 0.30 μg enzyme/well), d) 5% by vol. of Tween20 (1%), e) 47% by vol. H2O bi-dist. • 3) 20 μl of substrate mix, composed of a) 10% by vol. of 500 mM Tris-HCl pH8, b) 10% by vol. of 500 mM NaCl, c) 10% by vol. of 3.33 mM MnCl2, d) 5% by vol. of 25 mM MUP, 5% by vol. of Tween20 (1%), 60% by vol. of H2O bi-dist.
Enzyme buffer mix and substrate mix were made up 5 minutes prior to the addition and warmed to a temperature of 35° C. On completion of pipetting of all the solutions and on completion of mixing, the plate was incubated at 35° C. for 20 minutes. Finally, a relative fluorescence measurement was made at 35° C. with a BMG Labtech “POLARstar Optima” microplate reader using a 340/10 nm excitation filter and a 460 nm emission filter. The efficacy of the compounds of the general formula (I) is reported in the table which follows using abscisic acid (No. 64) as comparative substance according to the following classification: ++++ (inhibition≥90%), +++ (90%>inhibition≥70%), ++ (70%>inhibition≥50%), +(50%>inhibition≥30%).
Effects of selected compounds of the general formula (I) in the above-described in vitro assay at a concentration of 5 mM of the substance of the general formula (I) in question in a solution of DMSO and water: […]

[2] = system: Triticum aestivum (TRZAS); experiment: In vivo analyses Part C: drought stress, appearance vs stressed control plants in categories (TRZAS); set-up: key: 0: no positive effect; 10: slight positive effect; 20: clear positive effect; 30: strong positive effect; details: appearance vs stressed control plants after recovery phase, efficacy range of 3-4 pots
Protocol: Seeds of monocotyledonous and dicotyledonous crop plants were sown in sandy loam in plastic or wood-fibre pots, covered with soil or sand and cultivated in a greenhouse under good growth conditions. The test plants were treated at the early leaf stage (BBCH10-BBCH13). To assure uniform water supply before commencement of stress, the potted plants were supplied with water by dam irrigation prior to substance application. The inventive compounds were first formulated as wettable powders (WP) or dissolved in a solvent mixture. The further dilution was effected with water supplemented with 0.2% wetting agent (e.g. agrotin). The finished spray liquor was sprayed onto the green parts of the plant at an equivalent water application rate of 600 I/ha. Substance application was followed immediately by stress treatment of the plants. For this purpose, the wood-fibre pots were transferred in plastic inserts in order to prevent them from subsequently drying out too quickly. Drought stress was induced by gradual drying out under the following conditions: “Day”: 14 hours with illumination at 26-30° C. “Night”: 10 hours without illumination at 18-20° C. The duration of the respective stress phases was guided mainly by the condition of the stressed control plants. It was ended (by re-irrigating and transfer to a greenhouse with good growth conditions) as soon as irreversible damage was observed on the stressed control plants. The end of the stress phase was followed by an about 4-7-day recovery phase, during which the plants were once again kept under good growth conditions in a greenhouse. The duration of the recovery phase was guided mainly by when the trial plants had attained a state which enabled visual scoring of potential effects, and was therefore variable. Once this juncture had been reached, the appearance of the plants treated with test substances was recorded in comparison to the stressed control plants by the following categories: [table] For each substance and dosage, 3-4 pots were treated and evaluated. TRZAS=Triticum aestivum

Brassica napus (BRSNS) = experiment: In vivo analyses Part B: drought stress, appearance vs stressed control plants in categories (BRSNS); set-up: key: 0: no positive effect; 10: slight positive effect; 20: clear positive effect; 30: strong positive effect; details: category vs stressed control plants, 2-3 pots
Protocol: Seeds of monocotyledonous and dicotyledonous crop plants were sown in sandy loam in plastic pots, covered with soil or sand and cultivated in a greenhouse under good growth conditions. The test plants were treated at the early leaf stage (BBCH10-BBCH13). To assure uniform water supply before commencement of stress, the potted plants were supplied with water by dam irrigation prior to substance application. The inventive compounds, formulated in the form of wettable powders (WP), were sprayed onto the green parts of the plants as an aqueous suspension at an equivalent water application rate of 600 I/ha with addition of 0.2% wetting agent (e.g. agrotin). Substance application was followed immediately by stress treatment of the plants. Drought stress was induced by gradual drying out under the following conditions: “Day”: 14 hours with illumination at 26-30° C. “Night”: 10 hours without illumination at 18-20° C. The duration of the respective stress phases was guided mainly by the condition of the stressed control plants. It was ended (by re-irrigating and transfer to a greenhouse with good growth conditions) as soon as irreversible damage was observed on the stressed control plants. The end of the stress phase was followed by an about 4-7-day recovery phase, during which the plants were once again kept under good growth conditions in a greenhouse. The duration of the recovery phase was guided mainly by when the trial plants had attained a state which enabled visual scoring of potential effects, and was therefore variable. Once this juncture had been reached, the appearance of the plants treated with test substances was recorded in comparison to the stressed control plants by the following categories: [table] In order to rule out any influence on the effects observed by any fungicidal or insecticidal action of the test compounds, it was additionally ensured that the tests proceeded without fungal infection or insect infestation. For each substance and dosage, 2-3 pots were treated and evaluated. BRSNS=Brassica napus

Row | Structure (SMILES) | ABI1 inhibition [1] | Effect (TRZAS) ([2]; dosage 25 g/ha) | Effect (BRSNS) (Brassica napus (BRSNS); spray application 250 g/ha) | also measured
1 | CCC(C#CC(O)(C1(C#N)CC1)C12CC3CC(CC(C3)C1)C2)=CC(=O)OC (racemic) [I.1-738] | – | 10 | – | –
2 | COC(=O)C=C(C#CC(O)(C1(C#N)CC1)C12CC3CC(CC(C3)C1)C2)C(F)(F)F (racemic) [I.1-752] | – | 10 | – | –
3 | CCOC(=O)C=C(C#CC(O)(C1(C#N)CC1)C12CC3CC(CC(C3)C1)C2)C(F)(F)F (racemic) [I.1-753] | – | 10 | – | –
4 | CCOC(=O)C=C(C)C#CC(O)(C1(C#N)CC1)C12CC3CC(CC(C3)C1)C2 (racemic) [I.1-762] | – | – | – | Effect (TRZAS) ([2]; dosage 250 g/ha): 10
5 | CCOC(=O)C=C(C=CC(O)(C(C)C)C1(C#N)CC1)CC (racemic) [I.2-103] | – | – | – | Effect (TRZAS) ([2]; dosage 250 g/ha): 30
6 | CC/C(C#CC(O)(C(C)C)C1(C#N)CC1)=C/C(=O)NC1CC1 (centres unmarked) [I.1-157, (2Z)-6-(1-Cyanocyclopropyl)-N-cyclopropyl-3-ethyl-6-hydroxy-7-methyloct-2-en-4-ynamide] | – | 10 | – | –
7 | CCOC(=O)/C=C(\C#CC(O)(c1ccc(F)cc1)C1(C#N)CC1)CC (centres unmarked) [I.1-503, Ethyl (2Z)-6-(1-cyanocyclopropyl)-3-ethyl-6-(4-fluorophenyl)-6-hydroxyhex-2-en-4-ynoate] | – | – | – | inhibition [1]: > 90%; Effect (BRSNS) (Brassica napus (BRSNS); spray application 25 g/ha): 20-30
8 | CC/C(C#CC(O)(C(C)C)C1(C#N)CC1)=C/C(=O)OCCOC (centres unmarked) [I.1-606, 2-Methoxyethyl (2Z)-6-(1-cyanocyclopropyl)-3-ethyl-6-hydroxy-7-methyloct-2-en-4-ynoate] | – | – | 20 | inhibition [1]: > 90%
9 | CC/C(C#CC(O)(c1ccc(F)cc1)C1(C#N)CC1)=C/C(=O)OCCOC (centres unmarked) [I.1-614] | ++++ (inhibition≥90%) | – | 10-20 | –
10 | COC(=O)/C=C(\C#CC(O)(C1CCC1)C1(C#N)CC1)C(F)(F)F (centres unmarked) [I.1-662] | ++++ (inhibition≥90%) | 10-20 | – | –
11 | CCOC(=O)/C=C(/C)C#CC(O)(C1CCCCC1)C1(C#N)CC1 (centres unmarked) [I.1-702] | ++++ (inhibition≥90%) | – | – | Effect (TRZAS) ([2]; dosage 250 g/ha): 10
12 | COC(=O)/C=C(\C=C\C(O)(C(C)C)C1(C#N)CC1)C(F)(F)F (centres unmarked) [I.2-120, Methyl (2E,4E)-6-(1-cyanocyclopropyl)-6-hydroxy-7-methyl-3-(trifluoro-methyl)octa-2,4-dienoate] | – | – | 30 | inhibition [1]: > 90%

Continued, in another order:

Row | ABI1 inhibition [1] | Structure (SMILES) | Effect (TRZAS) ([2]; dosage 25 g/ha) | Effect (BRSNS) (Brassica napus (BRSNS); spray application 250 g/ha) | also measured
13 | ++++ (inhibition≥90%) | CCOC(=O)C=C(C)C#CC(O)(C(CC)CC)C1(C#N)CC1 (racemic) [I.1-732] | 10 | – | –
14 | ++++ (inhibition≥90%) | CC/C(C#CC(O)(C(C)C)C1(C#N)CC1)=C/C(=O)OC (centres unmarked) [I.1-102] | – | 30 | –
15 | +++ (90%>inhibition≥70%) | COC(=O)/C=C(\C#CC(O)(C(C)C)C1(C#N)CC1)C(F)(F)F (centres unmarked) [I.1-120] | – | 20 | –
16 | ++++ (inhibition≥90%) | CC/C(C#CC(O)(c1ccc(F)cc1)C1(C#N)CC1)=C/C(=O)OC (centres unmarked) [I.1-502] | – | 20-30 | –
